According to ChEMBL document CHEMBL5360653, “Marine Alkaloid Lepadins E and H Induce Ferroptosis for Cancer Chemotherapy” (J Med Chem, 2023):
pIC50: −log10 of the molar value. Calls of active or inactive are those of the source. The calls are words filed in the database; no cut-off is given here.

Assays:
[1] = test system: HeLa; assay: Induction of apoptosis in human HeLa cells assessed as viable cells preincubated with PFTalpha followed by compound addition at 10 uM for 24 hrs measured by annexin V-PI staining based FITC analysis (reference value: 91.6%); assay type: functional; conditions: read-out: Activity
[2] = test system: HeLa; assay: Induction of apoptosis in human HeLa cells assessed as necrotic cells preincubated with PFTalpha followed by compound addition at 10 uM for 24 hrs measured by annexin V-PI staining based FITC analysis (reference value: 1.6%); assay type: functional
[3] = test system: HeLa; assay: Induction of apoptosis in human HeLa cells assessed as late apoptotic cells incubated at 8 uM for 24 hrs measured by annexin V-PI staining based FITC analysis (reference value: 1.54%); assay type: functional
[4] = test system: HeLa; assay: Induction of apoptosis in human HeLa cells assessed as viable cells incubated at 10 uM for 24 hrs measured by annexin V-PI staining based FITC analysis (reference value: 91.6%); assay type: functional; conditions: read-out: Activity
[5] = test system: HeLa; assay: Induction of apoptosis in human HeLa cells assessed as early apoptotic cells incubated at 8 uM for 24 hrs measured by annexin V-PI staining based FITC analysis (reference value: 3.94%); assay type: functional
[6] = test system: HeLa; assay: Induction of apoptosis in human HeLa cells assessed as necrotic cells incubated at 6 uM for 24 hrs measured by annexin V-PI staining based FITC analysis (reference value: 0.58%); assay type: functional
[7] = test system: HeLa; assay: Induction of apoptosis in human HeLa cells assessed as necrotic cells incubated at 4 uM for 24 hrs measured by annexin V-PI staining based FITC analysis (reference value: 0.58%); assay type: functional
[8] = test system: HeLa; assay: Induction of ROS generation in human HeLa cells assessed as increase in ROS level at 20 uM incubated for 1 hrs (reference value: 37.8%); assay type: functional
[9] = test system: HeLa; assay: Induction of ROS generation in human HeLa cells assessed as increase in ROS level at 10 uM incubated for 0.5 hrs (reference value: 37.8%); assay type: functional
[10] = test system: HeLa; assay: Induction of apoptosis in human HeLa cells assessed as late apoptotic cells incubated at 10 uM for 24 hrs measured by annexin V-PI staining based FITC analysis (reference value: 1.54%); assay type: functional
[11] = test system: HeLa; assay: Induction of apoptosis in human HeLa cells assessed as early apoptotic cells preincubated with PFTalpha followed by compound addition at 10 uM for 24 hrs measured by annexin V-PI staining based FITC analysis (reference value: 3.28%); assay type: functional
[12] = test system: HeLa; assay: Induction of apoptosis in human HeLa cells assessed as late apoptotic cells incubated at 6 uM for 24 hrs measured by annexin V-PI staining based FITC analysis (reference value: 1.54%); assay type: functional
[13] = test system: HeLa; assay: Induction of apoptosis in human HeLa cells assessed as necrotic cells incubated at 8 uM for 24 hrs measured by annexin V-PI staining based FITC analysis (reference value: 0.58%); assay type: functional
[14] = test system: HeLa; assay: Induction of apoptosis in human HeLa cells assessed as late apoptotic cells incubated at 10 uM for 24 hrs measured by annexin V-PI staining based FITC analysis (reference value: 3.45%); assay type: functional
[15] = test system: HeLa; assay: Induction of apoptosis in human HeLa cells assessed as necrotic cells incubated at 10 uM for 24 hrs measured by annexin V-PI staining based FITC analysis (reference value: 1.6%); assay type: functional
[16] = test system: B16-F10; assay: Induction of ferroptosis in mouse B16-F10 cells assessed as downregulation of GPX4 level measured at 4 to 10 uM by Western blotting analysis; assay type: functional, cell-based; conditions: dose 4-10 µM
[17] = test system: HeLa; assay: Induction of ROS generation in human HeLa cells assessed as increase in ROS level at 10 uM incubated for 1 hrs (reference value: 39.6%); assay type: functional
[18] = test system: HeLa; assay: Induction of apoptosis in human HeLa cells assessed as early apoptotic cells incubated at 10 uM for 24 hrs measured by annexin V-PI staining based FITC analysis (reference value: 3.59%); assay type: functional
[19] = test system: HeLa; assay: Induction of ROS generation in human HeLa cells assessed as increase in ROS level at 10 uM incubated for 0.5 hrs (reference value: 39.6%); assay type: functional
[20] = Toxicity in immunocompetent C57BL/6J mouse allografted with B16-F10 cells assessed as change of organ index in lungs administered at 30 mg/kg, ip daily for 14 days by hematoxylin and eosin staining analysis; assay type: organism-based; conditions: in vivo, 336 h, time 14 day
[21] = test system: HeLa; assay: Induction of apoptosis in human HeLa cells assessed as early apoptotic cells incubated at 8 uM for 24 hrs measured by annexin V-PI staining based FITC analysis (reference value: 3.59%); assay type: functional
[22] = test system: B16-F10; assay: Cytotoxicity against mouse B16-F10 cells incubated for 72 hrs by MTT assay; assay type: functional, cell-based; conditions: B16-F10, 72 h
[23] = test system: B16-F10; assay: Induction of ferroptosis in mouse B16-F10 cells assessed as cell viability in presence of liproxstatin-1 at 10 uM; assay type: functional, cell-based
[24] = Toxicity in immunocompetent C57BL/6J mouse allografted with B16-F10 cells assessed as change of organ index in liver administered at 30 mg/kg, ip daily for 14 days by hematoxylin and eosin staining analysis; assay type: organism-based; conditions: in vivo, 336 h, time 14 day
[25] = test system: HeLa; assay: Induction of apoptosis in human HeLa cells assessed as early apoptotic cells preincubated with PFTalpha followed by compound addition at 10 uM for 24 hrs measured by annexin V-PI staining based FITC analysis (reference value: 2.72%); assay type: functional
[26] = Toxicity in immunocompetent C57BL/6J mouse allografted with B16-F10 cells assessed as tissue damage in liver administered at 30 mg/kg, ip daily for 14 days by hematoxylin and eosin staining analysis; assay type: organism-based; conditions: in vivo, 336 h, time 14 day
[27] = test system: HeLa; assay: Induction of apoptosis in human HeLa cells assessed as early apoptotic cells incubated at 10 uM for 24 hrs measured by annexin V-PI staining based FITC analysis (reference value: 2.72%); assay type: functional
[28] = test system: HeLa; assay: Induction of apoptosis in human HeLa cells assessed as late apoptotic cells incubated at 10 uM for 24 hrs measured by annexin V-PI staining based FITC analysis (reference value: 1.81%); assay type: functional
[29] = Toxicity in immunocompetent C57BL/6J mouse allografted with B16-F10 cells assessed as change of organ index in kidney administered at 30 mg/kg, ip daily for 14 days by hematoxylin and eosin staining analysis; assay type: organism-based; conditions: in vivo, 336 h, time 14 day
[30] = test system: HeLa; assay: Induction of apoptosis in human HeLa cells assessed as necrotic cells preincubated with PFTalpha followed by compound addition at 10 uM for 24 hrs measured by annexin V-PI staining based FITC analysis (reference value: 0.79%); assay type: functional
[31] = test system: HeLa; assay: Induction of apoptosis in human HeLa cells assessed as late apoptotic cells incubated at 8 uM for 24 hrs measured by annexin V-PI staining based FITC analysis (reference value: 1.81%); assay type: functional
[32] = test system: HeLa; assay: Induction of apoptosis in human HeLa cells assessed as necrotic cells incubated at 10 uM for 24 hrs measured by annexin V-PI staining based FITC analysis (reference value: 0.70%); assay type: functional
[33] = test system: HeLa; assay: Induction of apoptosis in human HeLa cells assessed as viable cells preincubated with PFTalpha followed by compound addition at 10 uM for 24 hrs measured by annexin V-PI staining based FITC analysis (reference value: 94.2%); assay type: functional; conditions: read-out: Activity
[34] = Toxicity in immunocompetent C57BL/6J mouse allografted with B16-F10 cells assessed as tissue damage in thymus administered at 30 mg/kg, ip daily for 14 days by hematoxylin and eosin staining analysis; assay type: organism-based; conditions: in vivo, 336 h, time 14 day

CCCCC/C=C/C(=O)O[C@@H]1C[C@H]2[C@@H](CCCC[C@H](O)CCC)CCC[C@H]2N[C@H]1C
viability at 10 µM [1]: 36.4%
Activity [2]: 4.34%
Activity [3]: 23.7%
viability at 10 µM [4]: 28%
Activity [5]: 20.9%
Activity [6]: 0.85%
Activity [7]: 0.53%
Activity [8]: 86.9%
Activity [9]: 55.1%
Activity [10]: 27.3%
Activity [11]: 31.9%
Activity [12]: 3.62%
Activity [13]: 3.09%
Activity [14]: 31.4%
Activity [15]: 5.06%

CCC/C=C/C=C/C(=O)O[C@@H]1C[C@H]2[C@@H](CCCC[C@H](O)CCC)CCC[C@H]2N[C@H]1C
Activity [16]: Active
Activity [17]: 81.5%
Activity [18]: 66.3%
Activity [19]: 77.7%
Activity [20]: Non-Toxic
Activity [21]: 21.1%
pIC50 [22]: 5.50
Activity [23]: Active
Activity [24]: Non-Toxic
Activity [25]: 30.5%
Activity [26]: Non-Toxic
Activity [27]: 31.8%
Activity [28]: 5.53%
Activity [29]: Non-Toxic
Activity [30]: 3.94%
Activity [31]: 2.28%
Activity [32]: 2.13%
viability at 10 µM [33]: 46%
Activity [34]: Non-Toxic
